Data as given in ChEMBL document CHEMBL1127888, “Synthesis and biological activity of intercalator substituted bile steroids” (Bioorg Med Chem Lett, 1994).

What was measured:
L1210 [1] = assay: Inhibitory activity against mouse leukemia L1210 cells; format: functional, cell-based
L1210 [2] = assay: Inhibitory activity against mouse leukemia L1210 cells; Range is 20 to >50; format: functional, cell-based

SMILES | IC50 (L1210 [1]) | IC50 (L1210 [2])
CC(CCCOC(=O)c1cnc2ccccc2c1)C1CC[C@H]2[C@@H]3[C@H](O)CC4C[C@H](O)CC[C@]4(C)[C@H]3C[C@H](O)[C@]12C (stereo not given in full) | 4.8 µM | 
CC(CCCOC(=O)c1ccc2ccccc2n1)C1CC[C@H]2[C@@H]3[C@H](O)CC4C[C@H](OC(=O)c5ccc6ccccc6n5)CC[C@]4(C)[C@H]3C[C@H](O)[C@]12C (stereo not given in full) |  | > 50 µM
CC(CCCOC(=O)c1cnc2ccccc2n1)C1CC[C@H]2[C@@H]3[C@H](O)CC4C[C@H](OC(=O)c5cnc6ccccc6n5)CC[C@]4(C)[C@H]3C[C@H](O)[C@]12C (stereo not given in full) |  | > 50 µM
CC(CCCOC(=O)c1cnc2ccccc2c1)C1CC[C@H]2[C@@H]3[C@H](O)CC4C[C@H](OC(=O)c5cnc6ccccc6c5)CC[C@]4(C)[C@H]3C[C@H](O)[C@]12C (stereo not given in full) |  | > 50 µM
CC(CCCOC(=O)c1ccc2ccccc2n1)C1CC[C@H]2[C@@H]3[C@H](O)CC4C[C@H](OC(=O)c5cnc6ccccc6n5)CC[C@]4(C)[C@H]3C[C@H](O)[C@]12C (stereo not given in full) |  | > 50 µM
